Where a name gives a salt, the structure may show the parent alone.
Biological target: T1, human GPR40 (Homo sapiens, UniProt O14842)
T1 construct: expressed in transfected cells
Experiment: Ca2+ mobilization (FLIPR) in a stable GPR40-expressing cell; GPR40 agonist activity
Assay type: cell-based
Settings: compound concentration corresponding to 50% PosiC, 100% = intracellular calcium level induced by 80 μM palmitic acid
Description: Evaluation of effect of test compounds on Ca^2+ mobilization by using a stable GPR40-expressing cell A stable human GPR40-expressing HEK293 cell was used. A cell suspension was prepared such that the above-mentioned cells were present at 6×10^5 cells/mL in a cell culture medium (D-MEM (Nikken Bio Medical Laboratory) supplemented with 10% (v/v) fetal bovine serum (Biowest) and 1% (v/v) penicillin-streptomycin solution (Invitrogen)). The cell suspension was plated in a 384-well plate (poly-D-lysine coated plate; Falcon) in a volume of 25 μl/well, and the plate was incubated at 37° C. in an atmosphere of 5% CO2 overnight. Each test compound was added to the cell at each concentration as below, and then the change in intracellular calcium level was measured by FLIPR^TETRA (Molecular Devices). Before the FLIPR assay, the following preparative solutions were prepared. First, an assay buffer was prepared for use in the preparation of a fluorescent dye solution and a diluent buffer solution. The assay buffer was prepared by adding 1M HEPES solution (Invitrogen) to Hanks' Balanced Salt Solution (Invitrogen), followed by adjusting the pH to 7.4 with 1M NaOH (Nacalai Tesque). Next, the fluorescent dye solution and the diluent buffer solution were prepared. The fluorescent dye solution was prepared in accordance with the instruction manual attached to Fluo-4NW calcium assay kit (Invitrogen), followed by addition of bovine serum albumin (Sigma) to a final concentration of 0.1% (w/v). The diluent buffer solution was prepared by adding bovine serum albumin (Sigma) to the assay buffer to give a final concentration of 0.1% (w/v). After removing a medium supernatant from the cell culture plate incubated overnight, the fluorescent dye solution was added to the plate in a volume of 25 μl/well. The plate was incubated at 37° C. in an atmosphere of 5% CO2 for 90 minutes to promote the fluorescent dye uptake in the cell. Meanwhile, the test compounds (i.e., the compounds prepared in Examples) dissolved in dimethyl sulfoxide (DMSO; Nacalai Tesque) were diluted with the diluent buffer solution, to prepare each compound solution at each concentration. In addition, a palmitic acid solution was prepared as a positive control solution (hereinafter abbreviated as PosiC). A 40 μl aliquot of each sample solution prepared as above was added to each well of a 384-well polypropylene plate to prepare a compound plate. Finally, after the sufficient uptake of the fluorescent dye in the cell, the cell plate and the compound plate were set to FLIPR^TETRA. After the above pretreatment, the change in intracellular calcium level was measured by FLIPR^TETRA upon addition of 25 μl of each test compound solution at each concentration. The GPR40 agonist activity of each test compound at each concentration was determined as a relative activity level (% PosiC) with the intracellular calcium level induced by 80 μM palmitic acid (a GPR40 agonist) set to 100%. Next, each compound concentration corresponding to 50% PosiC was calculated based on the % PosiC value, to compare between agonist activities of the test compounds. In the tables, “++++” indicates 0.01 μM or more but less than 0.1 μM, “+++” indicates 0.1 μM or more but less than 1 μM, “++” indicates 1 μM or more but less than 10 μM, and “+” indicates 10 μM or more for 50% posiC value. In the tables, “N.T.” indicates “not tested”.

T1 sequence (O14842 whole entry): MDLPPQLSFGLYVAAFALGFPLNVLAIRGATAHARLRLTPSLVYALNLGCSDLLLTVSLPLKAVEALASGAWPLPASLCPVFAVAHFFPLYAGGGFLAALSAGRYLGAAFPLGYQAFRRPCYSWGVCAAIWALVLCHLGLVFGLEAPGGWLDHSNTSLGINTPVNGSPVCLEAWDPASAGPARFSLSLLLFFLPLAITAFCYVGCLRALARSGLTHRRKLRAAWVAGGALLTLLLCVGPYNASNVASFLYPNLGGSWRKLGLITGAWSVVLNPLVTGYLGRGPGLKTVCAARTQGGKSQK

O=C1NC(=O)C(Cc2ccc(OCC3CCCC4(CCCCC4)C3)cc2)S1 (racemic) [Example 67, 5-[4-(spiro[5.5]undec-2-ylmethoxy)-benzyl]-thiazolidine-2,4-dione]
EC50: ≥ 10000 nM

O=C(O)CCc1ccc(OCCC2CCCC3(CCCCC3)C2)cc1 (racemic) [Example 62, 3-[4-(2-spiro[5.5]undec-2-yl-ethoxy)-phenyl]-propionic acid]
EC50: ≥ 10000 nM

C=CC(CC(=O)O)c1ccc(OCC2CCCC3(CCCCC3)C2)cc1 (racemic) [Example 86, 3-[4-(spiro[5.5]undec-2-ylmethoxy)-phenyl]-pent-4-enoic acid]
EC50: 1000 to 10000 nM

O=C(O)CCc1ccc(OCC2CCC3(CCCCC3)C2)cc1 (racemic) [Example 52, 3-[4-(spiro[4.5]dec-2-ylmethoxy)-phenyl]-propionic acid]
EC50: 1000 to 10000 nM

CC#C[C@@H](CC(=O)O)c1ccc(OCC2=CCCC3(CCCCCC3)C2)cc1 [Example 4, (S)-3-[4-(spiro[5.6]dodec-2-en-2-ylmethoxy)-phenyl]-hex-4-ynoic acid sodium salt]
EC50: 10 to 100 nM

CC1(C)CCC=CC12CCCC(COc1ccc(CCC(=O)O)cc1)C2 (racemic) [Example 55, 3-[4-(11,11-dimethyl-spiro[5.5]undec-7-en-2-ylmethoxy)-phenyl]-propionic acid]
EC50: 100 to 1000 nM

CCOC(CC(=O)O)c1ccc(OCC2=CC3(CCCCC3)CCC2)cc1 (single isomer, unassigned; (-)) [Example 42, (−)-3-ethoxy-3-[4-(spiro[5.5]undec-1-en-2-ylmethoxy)-phenyl]-propionic acid]
EC50: 10 to 100 nM

O=C(O)CC(c1ccccc1)c1ccc(OCC2CCCC3(CCCCC3)C2)cc1 (racemic) [Example 60, 3-phenyl-3-[4-(spiro[5.5]undec-2-ylmethoxy)-phenyl]-propionic acid]
EC50: 1000 to 10000 nM

CCCOC(CC(=O)O)c1ccc(OCC2CCCC3(CCCCC3)C2)cc1 (racemic) [Example 83, 3-propoxy-3-[4-(spiro[5.5]undec-2-ylmethoxy)-phenyl]-propionic acid]
EC50: 100 to 1000 nM

CC#C[C@@H](CC(=O)O)c1ccc(OCC2CCCC3(CCCCC3)C2)cc1 (mixture of isomers) [Example 28, (3S)-3-[4-(spiro[5.5]undec-2-ylmethoxy)-phenyl]-hex-4-ynoic acid]
EC50: 10 to 100 nM

O=C(O)CCc1ccc(OCC2CCC3(CCCCCC3)C2)cc1 (racemic) [Example 21, 3-[4-(spiro[4.6]undec-2-ylmethoxy)-phenyl]-propionic acid]
EC50: ≥ 10000 nM

CC#C[C@@H](CC(=O)O)c1ccc(OCC2=CCCC3(CCCCC3)C2)cc1 [Example 1, (S)-3-[4-(spiro[5.5]undec-2-en-2-ylmethoxy)-phenyl]-hex-4-ynoic acid]
EC50: 10 to 100 nM

CC#C[C@@H](CC(=O)O)c1ccc(OCC2CCCC3(CCCC3)C2)cc1 (single isomer, unassigned) [Example 39]
EC50: 100 to 1000 nM

CC#C[C@@H](CC(=O)O)c1ccc(OCC2=C[C@@]3(CCC2)CCC(=O)C3)cc1 [Example 97, (3S)-3-[4-((5S)-2-oxo-spiro[4.5]dec-6-en-7-ylmethoxy)-phenyl]-hex-4-ynoic acid sodium salt]
EC50: 100 to 1000 nM

CCC(CC(=O)O)c1ccc(OCC2CCCC3(CCCCC3)C2)cc1 (racemic) [Example 87, 3-[4-(spiro[5.5]undec-2-ylmethoxy)-phenyl]-pentanoic acid]
EC50: 1000 to 10000 nM

CC#C[C@@H](CC(=O)O)c1ccc(OCC2CCC3(CCCC3)CC2)cc1 [Example 22, (S)-3-[4-(spiro[4.5]dec-8-ylmethoxy)-phenyl]-hex-4-ynoic acid]
EC50: 100 to 1000 nM

O=C(O)CC(CO)c1ccc(OCC2CCCC3(CCCCC3)C2)cc1 (racemic) [Example 69, 4-hydroxy-3-[4-(spiro[5.5]undec-2-ylmethoxy)-phenyl]-butyric acid]
EC50: 1000 to 10000 nM

CC#C[C@@H](CC(=O)O)c1ccc(OCC2=CCCC3(CCCC3)C2)cc1 [Example 6, (S)-3-[4-(spiro[4.5]dec-7-en-7-ylmethoxy)-phenyl]-hex-4-ynoic acid sodium salt]
EC50: 100 to 1000 nM

CC#C[C@@H](CC(=O)O)c1ccc(OC2CCCC3(CCCCC3)C2)cc1 (mixture of isomers) [Example 64, (3S)-3-[4-(spiro[5.5]undec-2-yloxy)-phenyl]-hex-4-ynoic acid]
EC50: 100 to 1000 nM

CC#C[C@@H](CC(=O)O)c1ccc(OCC2=CCC3(CCCC3)CC2)cc1 [Example 25, (S)-3-[4-(spiro[4.5]dec-7-en-8-ylmethoxy)-phenyl]-hex-4-ynoic acid]
EC50: 100 to 1000 nM

CC1(C)CCCC2(CCCC(COc3ccc(CCC(=O)O)cc3)C2)C1 (racemic) [Example 48, 3-[4-(8,8-dimethyl-spiro[5.5]undec-2-ylmethoxy)-phenyl]-propionic acid]
EC50: 1000 to 10000 nM

CC#C[C@H](CC(=O)O)c1ccc(OCC2CCCC3(CCCCC3)C2)cc1 (mixture of isomers) [Example 58, (3R)-3-[4-(spiro[5.5]undec-2-ylmethoxy)-phenyl]-hex-4-ynoic acid]
EC50: 1000 to 10000 nM

CCC[C@@H](CC(=O)O)c1ccc(OCC2CCCC3(CCCCC3)C2)cc1 (mixture of isomers) [Example 78, (3S)-3-[4-(spiro[5.5]undec-2-ylmethoxy)-phenyl]-hexanoic acid]
EC50: 1000 to 10000 nM

CCOC(CC(=O)O)c1ccc(OCC2CCCC3(CCCCC3)C2)cc1 (racemic) [Example 75, 3-ethoxy-3-[4-(spiro[5.5]undec-2-ylmethoxy)-phenyl]-propionic acid]
EC50: 100 to 1000 nM

CC#C[C@@H](CC(=O)O)c1ccc(OCC2=CC3(CCCCC3)CC2)cc1 [Example 16, (S)-3-[4-(spiro[4.5]dec-1-en-2-ylmethoxy)-phenyl]-hex-4-ynoic acid sodium salt]
EC50: 100 to 1000 nM

CC#C[C@@H](CC(=O)O)c1ccc(OCC2=CC3(CCCCC3)CCC2)cc1 [Example 9, (S)-3-[4-(spiro[5.5]undec-1-en-2-ylmethoxy)-phenyl]-hex-4-ynoic acid]
EC50: 100 to 1000 nM

COCC(CC(=O)O)c1ccc(OCC2CCCC3(CCCCC3)C2)cc1 (racemic) [Example 71, 4-methoxy-3-[4-(spiro[5.5]undec-2-ylmethoxy)-phenyl]-butyric acid]
EC50: 1000 to 10000 nM

CC#C[C@@H](CC(=O)O)c1ccc(OCC2=CCCC3(CCCCC3)C2)cc1 [Example 119, (S)-3-[4-(spiro[5.5]undec-2-en-2-ylmethoxy)-phenyl]-hex-4-ynoic acid L-lysine salt]
EC50: 100 to 1000 nM

Cc1cc(OCC2=CC3(CCCC3)CCC2)ccc1CCC(=O)O [Example 109, 3-[2-methyl-4-(spiro[4.5]dec-6-en-7-ylmethoxy)-phenyl]-propionic acid]
EC50: 1000 to 10000 nM

CC#C[C@@H](CC(=O)O)c1ccc(OCC2CCCCC3(CC3)C2)cc1 (mixture of isomers) [Example 116, (3S)-3-[4-(spiro[2.6]non-5-ylmethoxy)-phenyl]-hex-4-ynoic acid]
EC50: 1000 to 10000 nM

O=C(O)CCc1ccc(OCC2CCCC3(CCCC3)C2)nc1 (racemic) [Example 113, 3-[6-(spiro[4.5]dec-7-ylmethoxy)-pyridin-3-yl]-propionic acid hydrochloride]
EC50: 1000 to 10000 nM

CC#C[C@@H](CC(=O)O)c1ccc(OCC2=CCC3(CCCCC3)CC2)cc1 [Example 73, (3S)-3-[4-(spiro[5.5]undec-2-en-3-ylmethoxy)-phenyl]-hex-4-ynoic acid]
EC50: 100 to 1000 nM

CN(C)C(=O)C(CC(=O)O)c1ccc(OCC2CCCC3(CCCCC3)C2)cc1 (racemic) [Example 59, N,N-dimethyl-3-[4-(spiro[5.5]undec-2-ylmethoxy)-phenyl]-succinamic acid]
EC50: 100 to 1000 nM

O=C(O)CCc1ccc(OCC2CCCC3(CCCCC3)C2)cc1 (single isomer, unassigned) [Example 89, 3-[4-(spiro[5.5]undec-2-ylmethoxy)-phenyl]-propionic acid (chiral: B)]
EC50: 1000 to 10000 nM

CC1(C)C=CC2(CCCC(COc3ccc(CCC(=O)O)cc3)C2)CC1 (racemic) [Example 53, 3-[4-(9,9-dimethyl-spiro[5.5]undec-7-en-2-ylmethoxy)-phenyl]-propionic acid]
EC50: 1000 to 10000 nM
